# From PMC12040169 (PLOS Biology, 2025)
# Assay: in vitro
# Conditions: human, hela cells, % viability
row,Structure (SMILES),"viability at 28.5 h, 10 µM [%]"
1,COc1ccc(CC(=O)N2CCCC(c3cccc(Cc4cccc(C)c4)n3)C2)cc1 (stereo not shown) [CBK286498],99.8
2,CCn1c(CN2CCCC2c2nc(N(C)C)ncc2-c2cccc(F)c2)nc2ccccc21 (stereo not shown) [CBK286500],102
3,Cc1nn(C)cc1CN1CCCC1c1nc(N(C)C)ncc1-c1cccc(Cl)c1 (stereo not shown) [CBK286501],86
4,O=C(c1ccccc1)N1CCCC(c2cccc(Cc3ccc(Cl)cc3)n2)C1 (stereo not shown) [CBK286502],99.5
5,O=C(CN1CCCC(c2cccc(Cc3ccc(F)cc3)n2)C1)Nc1nccs1 (stereo not shown) [CBK286503],93.1
6,Cc1nc(CC(=O)N2CCCC(c3cccc(Cc4ccc(Cl)cc4)n3)C2)cs1 (stereo not shown) [CBK286505],94.3
7,Cc1nn(C)cc1S(=O)(=O)N1CCCC(c2cccc(Cc3ccc(Cl)cc3)n2)C1 (stereo not shown) [CBK286506],88.4
8,O=C(C1CCCC1)N1CCC(c2cccc(Cc3ccccc3Cl)n2)CC1 [CBK286507],87.6
9,O=C(CN1CCOCC1)N1CCC(c2cccc(Cc3ccc(C(F)(F)F)cc3)n2)CC1 [CBK286508],101
10,CC1CCc2nc(NC(=O)CC3CCN(C(=O)Cc4ccccc4)CC3)sc2C1 (stereo not shown) [CBK286509],86.4
11,COc1ccc(CCC(=O)N2CCCC(c3nccnc3-c3cccc(C)c3)C2)cc1 (stereo not shown) [CBK286510],99.6
12,O=C(CCc1ccc(F)cc1)N1CCC(c2cccc(Cc3ccccc3)n2)CC1 [CBK286511],114
13,CCC(C)NC(=O)C1(Cc2cccc(-c3ccc(OC)cc3)c2)CCOCC1 (stereo not shown) [CBK286513],94.9
14,COc1ccc(-c2cccc(CC3(C(=O)NCc4cccs4)CCOCC3)c2)cc1 [CBK286514],88.5
15,COc1ccccc1-c1ccc(CC2(C(=O)NCCc3ccccc3)CCOCC2)cc1 [CBK286516],102
16,COc1ccccc1-c1ccc(CC2(C(=O)NCc3cccs3)CCOCC2)cc1 [CBK286517],93
17,COc1ccccc1-c1ccc(CC2(C(=O)NCc3ccc(F)cc3)CCOCC2)cc1 [CBK286518],100
18,COc1ccccc1-c1ccc(CC2(C(=O)NCc3cccc(F)c3)CCOCC2)cc1 [CBK286521],92.6
19,Cc1cc(C)cc(-c2ccc(CC3(C(=O)NC(C)CO)CCOCC3)cc2)c1 (stereo not shown) [CBK286523],110
20,Cc1cc(Cc2ccc(Cl)cc2)cc(C2CCN(C(=O)Cc3csc(C)n3)CC2)n1 [CBK286526],88.5
21,C[C@@H]1CN(Cc2ccco2)[C@H](C)CN1CC(=O)Nc1nc2c(s1)CCCC2 [CBK286530],100
22,Cc1c(NC(=O)CCCC(=O)O)c(=O)n(-c2ccccc2)n1C [CBK286532],93.1

row,Structure (SMILES),"viability at 28.5 h, 10 µM [%]"
1,O=C(O)CCC(=O)N1CCN(C(=O)c2ccco2)CC1 [CBK286533],102
2,O=C(O)CCCCCN1C(=O)C2CC=CCC2C1=O (stereo not shown) [CBK286534],82.5
3,O=C(O)C1C2C=CC(C2)C1C(=O)N1CCc2ccccc21 (stereo not shown) [CBK286537],85.2
4,O=C(O)C1=CC(c2ccc(O)cc2)n2ncnc2N1 (stereo not shown) [CBK286545],88.7
5,CC(=O)N1N=C(c2ccc3c(c2)OCO3)CC1c1ccc(C(=O)O)cc1 (stereo not shown) [CBK286547],95.4
6,COc1cccc(CN2CCC(C(=O)O)CC2)c1OC [CBK286548],90.5
7,CC(=O)N(CN1C(=O)CCC1=O)C(CC(C)C)C(=O)O (stereo not shown) [CBK286553],87.7
8,O=C(O)C1CCN(C(=O)CSc2nc3ccccc3o2)CC1 [CBK286557],91.6
9,O=C(O)c1cc(-c2ccccc2)oc1CSCCO [CBK286559],92.3
10,Cc1cc(C(=O)NC(Cc2c[nH]c3ccccc23)C(=O)O)c(C)o1 (stereo not shown) [CBK286560],86.5
11,COc1cc(NS(=O)(=O)c2ccccc2)c(Cl)cc1C(=O)O [CBK286564],98
12,Nc1cc(-c2ccccc2)nn1-c1ccc(C(=O)O)cc1 [CBK286565],84.9
13,CC1C(c2ccccc2)CCC(C(=O)O)C1C(=O)O (stereo not shown) [CBK286566],90.5
14,CC1CCN(C(=O)C2CC(=O)N(c3ccc(C(=O)O)cc3)C2)CC1 (stereo not shown) [CBK286568],87.6
15,CCOC(=O)N1CCC(NC(=O)CCC(=O)O)CC1 [CBK286569],91.5
16,O=C(COc1ccc2ccccc2c1)N[C@@H](C(=O)O)c1ccc(O)cc1 [CBK286571],88.8
17,Cc1cc(C(=O)NCCC(=O)O)c2ccccc2n1 [CBK286573],86
18,Cn1c(=O)cc(NCCCCCC(=O)O)[nH]c1=O [CBK286574],88.3
19,O=C(O)C(Cc1ccccc1)C(C(=O)O)c1ccccc1 (stereo not shown) [CBK286578],94.3
20,C[C@H](NC(=O)N1CCN(C(=O)c2c[nH]c3ccccc23)CC1)C(=O)O [CBK286581],84.5
21,O=C(O)CN(CC(=O)Nc1ccc(Cl)cc1)Cc1ccccc1 [CBK286585],85.5
22,O=C(O)c1ccccc1C1Nc2ccccc2S(=O)(=O)N1Cc1ccccc1 (stereo not shown) [CBK286587],107

row,Structure (SMILES),"viability at 28.5 h, 10 µM [%]"
1,C=CCC(NCc1ccccc1)c1ccc(C(=O)O)o1 (stereo not shown) [CBK286591],84.1
2,CC(C)C(C(=O)O)N(C)C(=O)OCc1ccccc1 (stereo not shown) [CBK286593],84.8
3,CC(C)(C)OC(=O)NC1CCN(C(=O)CCC(=O)O)CC1 [CBK286604],95.9
4,O=C(CSc1ccccn1)Nc1ccc(C(=O)O)cc1 [CBK286605],87.2
5,COc1ccc(CCN2C(=O)CC(C(=O)O)S/C2=N\c2ccccc2)cc1 (stereo not shown) [CBK286606],90.6
6,CC(C)C(NC(=O)C1CCC(C(C)(C)C)CC1)C(=O)O (stereo not shown) [CBK286610],95.5
7,COc1cccc(N2CC(C(=O)Nc3cccc(C(=O)O)c3)CC2=O)c1 (stereo not shown) [CBK286612],99.7
8,N#Cc1cccnc1SC(C(=O)O)c1ccccc1 (stereo not shown) [CBK286614],106
9,O=C(O)C1CCN(C(=O)CCn2ccc3cc(Br)ccc32)CC1 [CBK286617],105
10,COc1ccc(-c2csc(NC(=O)C(C)C)c2C(=O)O)cc1 [CBK286622],83.1
11,O=C(O)Cn1cc(C(C(=O)O)N2CCN(c3ccccc3)CC2)c2ccccc21 (stereo not shown) [CBK286625],78.1
12,O=C(O)C1CCC(CNc2ccc([N+](=O)[O-])cn2)CC1 (stereo not shown) [CBK286626],81.2
13,Cn1cc(C(C(=O)O)N2CCN(c3ccccc3)CC2)c2cc(C(=O)O)ccc21 (stereo not shown) [CBK286627],115
14,O=C(O)c1ccc(OCCN2C3=NCCN3c3ccccc32)cc1 [CBK286629],93
15,O=C(O)c1nccnc1C(=O)NCCc1c[nH]c2ccc(Cl)cc12 [CBK286630],93.8
16,CCOC(=O)N1CCN(C(C(=O)O)c2c[nH]c3ccc(C)cc23)CC1 (stereo not shown) [CBK286632],93.1
17,CC(=O)N1CCN(C(C(=O)O)c2c[nH]c3ccc(NC(=O)C(C)C)cc23)CC1 (stereo not shown) [CBK286634],89.7
18,O=C(O)C1CCN(C(=O)[C@@H]2Cc3ccccc3CN2)CC1 [CBK286638],91
19,COc1ccc(/C=C/C(=O)C2CC2)c(C(=O)O)c1OC [CBK286639],97
20,Cc1ccc(C2C(C(=O)c3ccccc3)=C(O)C(=O)N2CCC(=O)O)cc1 (stereo not shown) [CBK286642],81.1
21,O=C(O)C(c1c[nH]c2ccccc12)N1CCN(S(=O)(=O)c2ccccc2)CC1 (stereo not shown) [CBK286643],83.6
22,O=C(O)CNC(=O)Cn1ccc2ccc(OCc3ccccc3)cc21 [CBK286644],85.9

row,Structure (SMILES),"viability at 28.5 h, 10 µM [%]"
1,CC(=O)N1CCN(C(C(=O)O)c2cn(Cc3ccccc3)c3ccc(C(=O)O)cc23)CC1 (stereo not shown) [CBK286648],79.6
2,CC(SC1CCc2ccccc2NC1=O)C(=O)O (stereo not shown) [CBK286652],87.1
3,Cc1ccc(C2=NO[C@@](CC(=O)O)(C(=O)Nc3ccc4c(c3)OCCO4)C2)cc1 [CBK286653],85.1
4,O=C(CCNC(Cc1ccccc1)C(=O)O)c1ccccc1 (stereo not shown) [CBK286655],83
5,O=C(O)[C@@H]1CCCN1C(=O)C1CCC(Cn2nnc3ccccc3c2=O)CC1 (stereo partly shown) [CBK286658],88.6
6,CC(C)C1C(=O)Nc2ccccc2N1C(=O)NCCC(=O)O (stereo not shown) [CBK286659],87.4
7,O=C(O)CSc1nc2nc3c(cc2c(=O)n1Cc1ccccc1)CCCC3 [CBK286662],86.4
8,O=C(O)CNC(=O)Cn1ccc2cc(OCc3ccccc3)ccc21 [CBK286665],81.2
9,COCCNC(=O)N[C@H](Cc1ccccc1)C(=O)O [CBK286667],85.5
10,CC(C)[C@H](NC(=O)C1CC(=O)N(c2ccc(F)cc2)C1)C(=O)N1CCC(C(=O)O)CC1 (stereo partly shown) [CBK286669],94.8
11,COc1ccc(OC)c(C2=NO[C@@](CC(=O)O)(C(=O)NC3CCCCC3)C2)c1 [CBK286672],92.1
12,O=C(O)C(c1c[nH]c2cc(F)ccc12)N1CCN(c2ccccc2)CC1 (stereo not shown) [CBK286675],102
13,O=C1CC(c2ccc(C(=O)O)cc2)c2c(-c3ccc(Cl)cc3)n[nH]c2N1 (stereo not shown) [CBK286684],97
14,O=C(O)c1[nH]c(=O)[nH]c(=O)c1CN1CCCCC1 [CBK286688],96.8
15,CC(C)(C)OC(=O)N1CCC(C(=O)NC[C@H](CC(=O)O)c2ccc(Cl)cc2)CC1 [CBK286691],98
16,Cc1c(C(=O)O)sc2ncn(CCCOc3ccc(Cl)cc3)c(=O)c12 [CBK286695],106
17,COc1ccc(-c2cc(=O)oc3cc(OC(C)C(=O)O)ccc23)cc1 (stereo not shown) [CBK286696],105
18,Cc1oc2cc(OCC(=O)NCC(=O)O)ccc2c(=O)c1-c1ccc(Cl)cc1 [CBK286697],99.6
19,Cc1nn2c(O)c(CCO)c(C(=O)O)nc2c1-c1ccc(Cl)cc1 [CBK286699],108
20,CC(C)Cc1ccc(C(CC(=O)O)C(=O)O)cc1 (stereo not shown) [CBK286703],109
21,O=C(O)Cn1cc(C(=O)COc2ccccc2)c2ccccc21 [CBK286708],85.4
22,C[C@@H](NC(=O)CCN1C(=O)[C@@H]2Cc3ccccc3CN2C1=O)C(=O)O [CBK286709],93.7
